Assay results from PubChem BioAssay (NCI).
Where “and” joins values, the source holds several entries; their conditions need not be identical. Equal entries are not always repeated.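 Where inhibition never reached the appropriate level, the endpoint shown equals the highest concentration tested. Otherwise, values were interpolated linearly from a five-concentration, 48-hour dose response in 96-well plates. GI50: concentration for 50% inhibition of growth. TGI marks complete inhibition of growth.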

System: HCT-15 colon
Test: DTP human tumour cell line panel, 48 h

Row | Structure (SMILES) | TGI | GI50 [µM]
1 | C[N+](C)(C)CC1CCCC(C[N+](C)(C)C)C1=O (stereo not given) | 0.874 µM | 
2 | CCCCCCCCCCCCCC1CCC(CC)N1 (stereo not given) | 16.5 µM | 
3 | COc1ccc2c(c1)C=C([N+](=O)[O-])C(C1OC(C)(C)OC1C1COC(C)(C)O1)O2 (stereo not given) | 5.2 µM | 
4 | CC(=O)OC1Oc2ccccc2-c2oc(=O)c(-c3cc4ccc(N(C)C)cc4oc3=O)cc21 (stereo not given) | > 100 µM | 24.3
5 | CCC1(O)C(=O)OCc2c1cc1n(c2=O)Cc2cc3ccc(C=O)cc3nc2-1 (stereo not given) | 40.2 µM and > 62.4 µM | 
6 | CC1(C)C2CC(O)C1(C)CC2=O (stereo not given) | > 100 µM | 
7 | COc1ccc2c(c1)C(=O)c1c-2n(CCCn2ccnc2)c(=O)c2ccccc12 | 7.72 µM | 1.24
8 | COc1cc2oc(-c3ccc(O)cc3)cc(=O)c2c(OC)c1OC | > 100 µM | 
9 | COc1ccc(N2C(=O)C3c4[nH]c5ccc(C)cc5c4C4CCC(C(C)(C)C)CC4C3C2=O)cc1 (stereo not given) | > 100 µM | 
10 | CC/C=C\C[C@@H]1C/C=C2/C(=O)C=C[C@H]2C/C=C\CCCC(=O)O1 | 0.865 µM | 0.242
11 | Cc1ccc(S(=O)(=O)n2c(-c3ccccc3)c(-c3ccccc3)c3ccccc32)cc1 | > 100 µM | 
12 | NC(=S)N/N=C/c1ccc(OC(=O)COc2ccc(Cl)cc2)cn1 | > 100 µM | 22.9
13 | O=C(N/N=C/c1cccc(O)c1O)c1ccccc1 | > 100 µM | 0.466
14 | c1ccc(C2=NNC3c4ccccc4-c4ccccc4N3C2)cc1 (stereo not given) | > 100 µM | 
15 | CN/N=C(/CCN1CCCC1)CC(c1ccccc1)c1c(O)c2ccccc2oc1=O (stereo not given) | > 100 µM | 
16 | COc1ccc2c(c1)CCC1C3(CCCC21C)OCCO3 (stereo not given) | 34.2 µM | 
17 | COc1ccc(OC)c(/C=C/C(=O)N/N=C/c2ccc(Cl)cc2)c1 | > 100 µM | 0.0736
18 | Cc1cc(C)nc(NS(=O)(=O)c2ccc(Nc3c4ccccc4nc4c(C(=O)Nc5ccc(S(=O)(=O)Nc6cc(C)on6)cc5)cccc34)cc2)n1 | > 100 µM | 
19 | CCN(CC)c1sc(N(CC)CC)c2c1SSSSS2 | > 34.2 µM | 1.24
20 | COc1cc(C2=NN(C(C)=O)C(c3ccc(OC(C)=O)cc3OC(C)=O)O2)c(OC(C)=O)c2ccccc12 (stereo not given) | 25.6 µM | 0.581
21 | COc1cc(OC(=O)c2c(O)cc(O)c(O)c2C)cc(C)c1C(=O)Oc1cc(C)c(C(=O)O)c(O)c1 | > 100 µM | 
22 | COC(=O)Nc1nc2ccc(Oc3ccc(NC(=O)Nc4ccccc4)cc3)cc2[nH]1 | > 25 µM | 0.135
23 | CCN(CC)CCCC(C)Nc1c(C)cnc2cc(Cl)c(C)cc12 (stereo not given) | > 68 µM | 11.7
24 | Cc1ccc2nc3c(C(=O)NCCN(C)C)cccc3nc2c1 | 18 µM | 

System: SNB-75 CNS
Test: DTP human tumour cell line panel, 48 h

Row | Structure (SMILES) | TGI | GI50 [µM]
25 | C[N+](C)(C)CC1CCCC(C[N+](C)(C)C)C1=O (stereo not given) | 14.5 µM | 
26 | CCCCCCCCCCCCCC1CCC(CC)N1 (stereo not given) | 17.7 µM | 
27 | COc1ccc2c(c1)C=C([N+](=O)[O-])C(C1OC(C)(C)OC1C1COC(C)(C)O1)O2 (stereo not given) | 28.2 µM | 
28 | CC(=O)OC1Oc2ccccc2-c2oc(=O)c(-c3cc4ccc(N(C)C)cc4oc3=O)cc21 (stereo not given) | 25.4 µM | 9.9
29 | CCC1(O)C(=O)OCc2c1cc1n(c2=O)Cc2cc3ccc(C=O)cc3nc2-1 (stereo not given) | 30.8 µM and 14.5 µM | 
30 | CC1(C)C2CC(O)C1(C)CC2=O (stereo not given) | > 100 µM | 
31 | COc1ccc2c(c1)C(=O)c1c-2n(CCCn2ccnc2)c(=O)c2ccccc12 | > 22.4 µM | 0.843
32 | COc1cc2oc(-c3ccc(O)cc3)cc(=O)c2c(OC)c1OC | > 100 µM | 
33 | COc1ccc(N2C(=O)C3c4[nH]c5ccc(C)cc5c4C4CCC(C(C)(C)C)CC4C3C2=O)cc1 (stereo not given) | 7.7 µM | 
34 | CC/C=C\C[C@@H]1C/C=C2/C(=O)C=C[C@H]2C/C=C\CCCC(=O)O1 | 2.6 µM | 1.18
35 | Cc1ccc(S(=O)(=O)n2c(-c3ccccc3)c(-c3ccccc3)c3ccccc32)cc1 | > 100 µM | 
36 | NC(=S)N/N=C/c1ccc(OC(=O)COc2ccc(Cl)cc2)cn1 | > 100 µM | 
37 | O=C(N/N=C/c1cccc(O)c1O)c1ccccc1 | 85.6 µM | 4.66
38 | c1ccc(C2=NNC3c4ccccc4-c4ccccc4N3C2)cc1 (stereo not given) | 66.1 µM | 
39 | CN/N=C(/CCN1CCCC1)CC(c1ccccc1)c1c(O)c2ccccc2oc1=O (stereo not given) | > 31.6 µM | 
40 | COc1ccc2c(c1)CCC1C3(CCCC21C)OCCO3 (stereo not given) | 60.3 µM | 
41 | COc1ccc(OC)c(/C=C/C(=O)N/N=C/c2ccc(Cl)cc2)c1 | 0.674 µM | 0.0537
42 | Cc1cc(C)nc(NS(=O)(=O)c2ccc(Nc3c4ccccc4nc4c(C(=O)Nc5ccc(S(=O)(=O)Nc6cc(C)on6)cc5)cccc34)cc2)n1 | 69 µM | 
43 | CCN(CC)c1sc(N(CC)CC)c2c1SSSSS2 | 4.52 µM | 2.71
44 | COc1cc(C2=NN(C(C)=O)C(c3ccc(OC(C)=O)cc3OC(C)=O)O2)c(OC(C)=O)c2ccccc12 (stereo not given) | 29.6 µM | 2.28
45 | COc1cc(OC(=O)c2c(O)cc(O)c(O)c2C)cc(C)c1C(=O)Oc1cc(C)c(C(=O)O)c(O)c1 | > 100 µM | 
46 | COC(=O)Nc1nc2ccc(Oc3ccc(NC(=O)Nc4ccccc4)cc3)cc2[nH]1 | 7.15 µM | 0.115
47 | CCN(CC)CCCC(C)Nc1c(C)cnc2cc(Cl)c(C)cc12 (stereo not given) | 36 µM | 17.8
48 | Cc1ccc2nc3c(C(=O)NCCN(C)C)cccc3nc2c1 | 42.9 µM | 

System: RPMI-8226 leukemia
Test: DTP human tumour cell line panel, 48 h

Row | Structure (SMILES) | TGI [µM] | GI50 [µM]
49 | C[N+](C)(C)CC1CCCC(C[N+](C)(C)C)C1=O (stereo not given) | 0.256 | 
50 | CCCCCCCCCCCCCC1CCC(CC)N1 (stereo not given) | 36.8 | 
51 | COc1ccc2c(c1)C=C([N+](=O)[O-])C(C1OC(C)(C)OC1C1COC(C)(C)O1)O2 (stereo not given) | 4.54 | 
52 | CC(=O)OC1Oc2ccccc2-c2oc(=O)c(-c3cc4ccc(N(C)C)cc4oc3=O)cc21 (stereo not given) | 15 | 0.392
53 | CCC1(O)C(=O)OCc2c1cc1n(c2=O)Cc2cc3ccc(C=O)cc3nc2-1 (stereo not given) | 30.4 | 
54 | CC1(C)C2CC(O)C1(C)CC2=O (stereo not given) | > 100 | 
55 | COc1ccc2c(c1)C(=O)c1c-2n(CCCn2ccnc2)c(=O)c2ccccc12 | 2 | 0.223
56 | COc1cc2oc(-c3ccc(O)cc3)cc(=O)c2c(OC)c1OC | > 100 | 
57 | COc1ccc(N2C(=O)C3c4[nH]c5ccc(C)cc5c4C4CCC(C(C)(C)C)CC4C3C2=O)cc1 (stereo not given) | 82.1 | 
58 | CC/C=C\C[C@@H]1C/C=C2/C(=O)C=C[C@H]2C/C=C\CCCC(=O)O1 | 1.33 | 0.331
59 | Cc1ccc(S(=O)(=O)n2c(-c3ccccc3)c(-c3ccccc3)c3ccccc32)cc1 | > 100 | 
60 | NC(=S)N/N=C/c1ccc(OC(=O)COc2ccc(Cl)cc2)cn1 | > 100 | 7.31
61 | O=C(N/N=C/c1cccc(O)c1O)c1ccccc1 | > 100 | 1.3
